Test results reported in patent US20010049374A1 (priority 1997, published 2001).
Where two headings read alike, the source gives them in different places.

Experiments:
[1] = test system: tumor metastasis; details: in vivo; Kellen et al. 1988; cited from earlier work
[2] = test system: angiogenesis/capillary network formation; details: in vitro; Alliegro and Glaser 1991; cited from earlier work
[3] = biological target: T1, urokinase enzyme Abbokinase (Homo sapiens, UniProt P00749); test: Determination of urokinase inhibition (Abbokinase, chromogenic substrate S-2444); assay type: biochemical; details: substrate S-2444 at 200 μM, enzyme 2-3 nM, pH 7.4, 405 nm
T1 construct: purchased Abbott Laboratories, Abbott Park, Ill
Description: Several vials were reconstituted as directed on the vial, aliquoted and stored frozen. The enzyme was further diluted in assay buffer and 10 μl was used in the assay. Enzyme concentration in the assay was 2-3 nM. […] The Spectromax® calculated the reaction rates which were used to calculate percent inhibition of the compounds of this invention versus the reaction rate of the enzyme in the absence of any inhibitor. The Ki's of the inhibitors were calculated from the percent inhibition and previously established Km.

[4] = IC50, Inhibitory potency against urokinase
[5] = Inhibitory potency against urokinase, read-out: IC50

IC50 [3, 4] [nM] | Compound | IC50 [3, 5] [nM] | further results
 | N=C(N)NC(=O)c1nc(Cl)c(N)nc1N [Amiloride] |  | inhibition of tumor metastasis [1]: inhibit tumor metastasis in vivo; inhibition of angiogenesis/capillary network formation [2]: angiogenesis/capillary network formation in vitro
890 | N=C(N)c1ccc2cc(C#Cc3ccc(N)cc3)ccc2c1 [Example 121, 6-[(4-aminophenyl)ethynyl]-2-naphthalenecarboximidamide] |  | 
 | 1-[(7-aminoiminomethyl-2-methoxy-1-naphthalenyl)oxy]-3-bromopropane [Example 21] | 1700 | 
 | 6-(aminoiminomethyl)-N-(5-methyl-2-pyridinyl)-2-naphthalenecarboxamide [Example 198] | 504 | 
 | (E)-3-[7-(aminoiminomethyl)-2-methoxy-1-naphthalenyl)-2-propenamide [Example 120] | 930 | 
 | COc1ccc2ccc(C(=N)N)cc2c1Oc1nccs1 [Example 65, 7-Methoxy-8-[2-thiazoyl(oxy)]naphthalene-2-carboximidamide] | 540 | 
3600 | N=C(N)c1ccc2ccc(OCCO)cc2c1 [Example 30, 7-(2-Hydroxyethoxy)-2-naphthalenecarboximidamide] |  | 
 | N-[6-(Aminoiminomethyl)-2-naphthalenyl]-4-(aminomethyl)benzamide [Example 77] | 230 | 
 | N=C(N)c1ccc2cc(C(=O)Nc3cccc(OCc4ccccc4)c3)ccc2c1 [Example 222] | 346 | 
 | 6-(aminoiminomethyl)-N-phenyl-4-(2-pyrimidinylamino)-2-naphthalenecarboxamide [Example 166] | 2 | 
> 30000 | COC(=O)c1ccc(COc2ccc3ccc(C(N)=NO)cc3c2)cc1 [Example 182] |  | 
 | 6-(aminoiminomethyl)-N-(4-methyl-2-thiazolyl)-2-naphthalenecarboxamide [Example 199] | 2300 | 
6500 | N=C(N)c1ccc2cc(OCCc3ccc(N)cc3)ccc2c1 [Example 89, 6-[2-(4-Aminophenyl)ethoxy]-2-naphthalenecarboximidamide] |  | 
6600 | COc1ccc2ccc(C(=N)N)cc2c1OC [Example 1, 7,8-Dimethoxy-2-naphthalenecarboximidamide] |  | 
2500 | N=C(N)c1ccc2ccc(OCc3ccccc3)c(I)c2c1 [Example 5, 7-Benzyloxy-8-iodo-2-naphthalenecarboximidamide] |  | 
 | 1,1-Dimethylethyl [4- [[(6-aminoiminomethyl-2-naphthalenyl)amino]carbonyl]phenyl]carbamate [Example 76] | 960 | 
1930 | [H]/N=C(/N)c1ccc2cc(C=CSc3ccccc3)ccc2c1 [Example 80, (E)-6-[2-(Phenylthio)ethenyl]-2-naphthalenecarboximidamide] |  | 
